Assay [1] concerns U-87 MG cells. Briefly: MTT proliferation assay in vitro. It is filed as cell-based, human. The following applies: JI-34 1 μM, DOX 100 nM; combination: 24 h JI-34 pretreatment, then DOX+JI-34 48 h. As for the experimental part:
For proliferation studies, 104 cells per well were seeded in 100 μL media, in a 96-well plate, and incubated for 24 h in a humidified incubator at 37° C. Then, culture medium was replaced with FBSfree medium (starvation) for 24 h. After 24 h, the cells received full medium containing the following treatments: Groups 1 (control) and 3, vehicle solution; groups 2 and 4, JI-34 (1 μM final concentration). After another 24 h, the cells received the following treatments: group 1, vehicle solution; group 2, JI-34; group 3, DOX (100 nM final concentration); and group 4, JI-34+DOX. Then, they were incubated for 48 h and the effect on cell proliferation was evaluated by using the MTT assay (CellTiter 96 Non-Radioactive Cell Proliferation Assay; Promega), according to the manufacturer's instructions with the help of a Victor3 multilabel counter (Perkin-Elmer).
(In general: Formazan colour is commonly taken as a measure of viable cells.)

Assay [2] deals with U-87 MG cells. Briefly: Cell counting after repeated exposure for 3 wk (Coulter Counter). The following applies: repeated exposure 3 wk, 1 μM JI-34 daily, DOX weekly at 100 nM; vs. control. It is filed as cell-based, human. On the procedure: (§1) U-87 MG cells were cultured in Eagle's minimum essential medium (ATCC) medium [supplemented with 10% FBS (ATCC) and 0.1% penicillin/streptomycin] at 37° C. and 5% CO2 atmosphere. For cell count and cell size determination, […] were seeded into T-25 flasks. The medium was changed two to three times a week. The following treatment in vitro groups were set up: (Group 1) control, vehicle solution; (group 2) JI-34 at 1 μM final concentration, daily; (group 3) DOX at 100 nM final concentration, weekly on Thursdays; and (group 4) JI-34, 1 μM and DOX, 100 nM. After 3 wk, cell count and cell size were determined by Z Series Coulter Counter (Beckman Coulter).

Assay [3] deals with U-87 MG cells. Kind of assay: ApoLive-Glo Multiplex assay (viability and apoptosis). It is filed as cell-based, human. The following applies: JI-34 1 μM, DOX 100 nM, after 24 h of treatment. As for the experimental part: Determinations of viability and apoptosis were performed from freshly seeded cell samples (10^4 cells per well, in 100 μL media, in a 96-well plate) with the help of ApoLive-Glo Multiplex Assay (Promega), according to the manufacturer's instructions. First the cells received full medium containing the following treatments: Groups 1 (control) and 3, vehicle solution; groups 2 and 4, JI-34 (1 μM final concentration). After 24 h, the cells received the following treatments: group 1, (vehicle solution); group 2, JI-34; group 3, DOX (100 nM final concentration); and group 4, JI-34+DOX. After another 24 h of incubation, viability reagent was added to the wells and fluorescence was measured by Victor3 multilabel counter. Then Caspase-Glo 3/7 apoptosis reagent was added and luminescence was determined.

The subject of assay [4] is U-87 MG cells. Kind of assay: ELISA of p53, FGF basic and TGFβ. It is filed as cell-based, human. The following applies: cell culture supernatant, 1 μM JI-34; vs. control. As for the experimental part: Glioblastoma cells (10^5 cells per well) were seeded onto six-well plates, cultured overnight, and then exposed to compounds used in the 3-(4,5-dimethylthiazol-2-yl)-2,5-diphenyltetrazolium bromide proliferation assays: Groups 1 (control) and 3, vehicle solution; groups 2 and 4, GHRH agonists JI-34 (1 μM final concentration). After another 24 h, the cells received the following treatments: Group 1, vehicle solution; group 2, JI-34; group 3, doxorubicin (DOX) (100 nM final concentration); and group 4, JI-34+DOX. Concentrations of the specific proteins in the medium (in the case of FGF basic or TGFβ-1) or in samples of scraped and homogenized cells (in the case of p53) were determined after 24 h using ELISA kits according to the manufacturer's instructions. Human TGFβ and FGF basic ELISA kits were obtained from AbCam, whereas p53 was measured with a PathScan Sandwich ELISA kit (Cell Signaling Technology). Readings were normalized to protein concentrations as determined by NanoDrop (NanoDrop Technologies).
(ELISA stands for enzyme-linked immunosorbent assay.)

Assay [5] has as its system U-87 MG xenografts. Kind of assay: Western blot of necropsied in vivo tumor samples. Further details: species or system nude mice. To be noted: xenograft samples after 6 wk treatment. On the procedure: (§2) Six-wk-old nude mice (Ncr nu/nu) were obtained from the National Cancer Institute (Bethesda, Md.). The animals were housed in sterile cages in a temperature-controlled room with a 12-h light/12-h dark schedule and were fed with autoclaved chow and water, ad libitum. The Institutional Animal Care and Use Committee, VA Medical Center Miami, Fla. fully approved the animal protocols. For the therapy study, 10^6 cells per mouse of the human glioblastoma cell line, U-87 MG (American Type Culture Collection, ATCC), were injected into the flanks of four nude mice (Ncr nu/nu) under isoflurane anesthesia (Baxter). A month later, the resulting tumors were harvested and minced into ˜3 mm^3 pieces and transplanted into flanks of nude mice, under anesthesia, using a minitrocar. When the tumors reached ˜32 mm^3, the mice were randomized into four groups. The animals received the following treatments for 6 wk: (Group 1) control, 16 tumors, vehicle solution; (group 2) agonist JI-34, 1 μg/20 g, s.c., daily, 19 tumors; (group 3) DOX, 260 nmol/20 g, i.v., weekly on Thursdays, 19 tumors; and (group 4) JI-34 (1 μg/20 g daily)+DOX (260 nmol/20 g), 16 tumors. Tumor volume was measured with microcalipers once a week and calculated using the formula: (length×width×height×in)/6. Tumor doubling time was calculated using the formula: [study duration×logarithm (LOG) 2]/(LOG final tumor volume−LOG initial tumor volume). At the end of the experiment, the mice were killed under pentobarbital anesthesia, tumors were excised and weighed; necropsy was performed. Samples free of necrotic debris were immediately snap frozen in liquid nitrogen and stored at −80° C. for further analyses.
Protein from the tumor tissue was isolated using the NucleoSpin kit (Macherey-Nagel). Protein concentrations were determined by NanoDrop (NanoDrop Technologies). Equal amounts of protein were resuspended in sample loading buffer (0.25 M Trizma Base, 8% SDS, 40% glycerol, 0.004% bromophenol blue, 4% P3-mercaptoethanol; pH 6.8), boiled for 3 min and separated by 12% SDS-polyacrylamide gel electrophoresis. Proteins from the gel were then transferred onto nitrocellulose membranes, which were blocked with 50-50% Tris-buffered saline (20 mM Tris.HCl pH 7.5, 150 mM NaCl) and Odyssey blocking buffer for 1 h at room temperature, followed by an overnight incubation at 4° C. with the following primary antibodies: growth hormone-releasing hormone receptor (GHRH-R), (ab28692) nestin (ab92391), glial fibrillary acid protein (GFAP) (ab48050) (all from AbCam), β-actin (A5441; Sigma-Aldrich), or p53 (9282; Cell Signaling Technology). […] The protein bands were quantified using […] (LI-COR Biosciences); integrated density values of triplicate experiments were plotted.
Background: In western blotting, separated proteins are transferred to a membrane and probed.

Assay [6] has as its system U-87 MG cells. Kind of assay: Immunocytochemistry / differentiation in reduced serum-containing medium. It is filed as cell-based, human. To be noted: JI-34 1 μM, 0.1% FBS-containing medium, 2 d; vs. DMSO control. As for the experimental part:
Cells were seeded onto coverslips in six-well plates (50,000 cells per well) in 10% FBS-containing growth medium. This medium was replaced with serum-free medium the following day for 24 h. Thereafter, GHRH agonist (JI-34, 1 μM) was added in medium supplemented with 0.1% FBS and remained for the consecutive 2 d. Control cells received vehicle (DMSO). At the end of the treatment, phase-contrast images of live cells were collected and cells were fixed in ice-cold acetone for 10 min, washed with PBS three times, and blocked with 2% goat serum in PBS for 30 min. GFAP (Abcam; 1:500 dilution) or nestin (BD Transduction Laboratories; 1:75 dilution) antibodies were added in PBS for 1 h. Anti-rabbit and anti-mouse secondary antibodies (Alexa Fluor 488; Jackson Immunoresearch) were also applied for 1 h. Coverslips were mounted in Vectashield mounting medium containing DAPI for nuclear staining (Vector Laboratories). Images were acquired on a Nikon Eclipse Ti fluorescence microscope (Nikon Instruments).

For assay [7], the system named is U-87 MG, human GBM tumors. Briefly: Growth of U-87 MG glioblastoma xenografts in nude mice. It is filed as in vivo. The following applies: U-87 MG xenografts in nude mice, 6 wk; JI-34 50 μg/kg/d s.c., DOX 13 μmol/kg/wk i.v.; vs. control. As for the experimental part: as §2, with “The animals received the following treatments for 6 wk: (Group 1) control, 16 tumors, vehicle solution; (group 2) agonist JI-34, 1 μg/20 g, s.c., daily, 19 tumors; (group 3) DOX, 260 nmol/20 g, i.v., weekly on Thursdays, 19 tumors; and (group 4) JI-34 (1 μg/20 g daily)+DOX (260 nmol/20 g), 16 tumors.” left out, “At the end of the experiment, the mice were killed under pentobarbital anesthesia, tumors were excised and weighed; necropsy was performed. Samples free of necrotic debris were immediately snap frozen in liquid nitrogen and stored at −80° C. for further analyses.” left out

The subject of assay [8] is U-87 MG cells. Briefly: Cell volume determination (intracellular water space, 3-OMG). The format is cell-based, human. To be noted: repeated exposure 3 wk, 1 μM JI-34 daily, DOX weekly at 100 nM; vs. control. As for the experimental part:
as §1
Cell volume was estimated by measuring the intracellular water space as follows. Briefly, 1 mM 3-O-methylglucose (3-OMG) and 0.5 μCi/mL [3H]-3-OMG were added to the culture 6 h before the volume assay. At the end of the incubation period, culture medium was aspirated, and an aliquot was saved for radioactivity determination. […] Radioactivity in the cell extracts and media was determined, and an aliquot of the cell extract was used for protein estimation with the Bio-Rad bicinchoninic acid kit. Values were normalized to protein level, and cell volume was expressed as microliters/milligram protein.

For assay [9], the system named is U-87 cell-derived tumors. Briefly: Human Cancer PathwayFinder quantitative PCR array of dissected tumor samples. To be noted: tumors after 6 wk treatment; fold change (ΔΔCt) vs. control. It is filed as in vivo, nude mice. On the procedure:
as §2, with “The animals received the following treatments for 6 wk: (Group 1) control, 16 tumors, vehicle solution; (group 2) agonist JI-34, 1 μg/20 g, s.c., daily, 19 tumors; (group 3) DOX, 260 nmol/20 g, i.v., weekly on Thursdays, 19 tumors; and (group 4) JI-34 (1 μg/20 g daily)+DOX (260 nmol/20 g), 16 tumors.” left out, “At the end of the experiment, the mice were killed under pentobarbital anesthesia, tumors were excised and weighed; necropsy was performed. Samples free of necrotic debris were immediately snap frozen in liquid nitrogen and stored at −80° C. for further analyses.” left out
Total RNA was isolated from representative, DNase treated, U-87 MG dissected tumor samples using a NucleoSpin kit according to the manufacturer's instructions (Macherey-Nagel). Four tumor samples from each group were analyzed. The yield and the quality of RNA samples were determined spectrophotometrically using 260 nm, and 260/280- and 260/230-nm ratio. […]
The Human Cancer PathwayFinder quantitative PCR array (PAHS-033A; Qiagen) used in our study contains 84 unique genes related to cell proliferation, apoptosis, cell cycle, angiogenesis, invasion, and metastasis. […] Fold changes in gene expression were calculated using the ΔΔCt method and five stably expressed housekeeping genes (B2M, HPRT1, RPL13A, GAPDH, and ACTB) were used for normalization of the results.

The subject of assay [10] is U-87 MG cells. Kind of assay: Multidrug resistance (MDR) assay, calcein retention. The format is cell-based, human. To be noted: JI-34 1 μM pretreatment 24 h, DOX 100 nM, cyclosporin-A 1/1,000 dilution; 1 h; vs. control.
Procedure: The multidrug resistance assays were performed according to the manufacturer's instructions (Cayman Chemical). U-87 MG cells were seeded, 5×10^4 cells per well density in 100 μL medium in 96-well, black, clear-bottom plates and grown overnight in a humidified incubator at 37° C. […] Afterward, the cells were incubated for 1 h, then calcein AM/Hoechst dye combined staining solution was added. Fifteen minutes later, both cell density (at excitation and emission wavelengths of 355 nm and 465 nm, respectively) and calcein retention (at excitation and emission wavelengths of 485 nm and 535 nm, respectively) were detected with the help of a Victor3 multilabel counter. Relative calcein retention values were expressed as a function of cell density.

The text below walks through data of US20150174207A1, “METHODS FOR TREATING CANCER WITH GHRH AGONISTS” (UNIVERSITY OF MIAMI, priority 2013, published 2015).

“Also recorded” adds a separate entry of the source. Marks after values point to notes of the source that are not given here. [ ]: non-standard residue; d: D form. The star is where a group is joined. Desaminotyrosyl = O=C(CCc1ccc(O)cc1)*; Agmatine = N=C(N)NCCCCN*; Nle = CCCC[C@H](N)C(=O)O; Orn = NCCC[C@H](N)C(=O)O; Abu = CC[C@H](N)C(=O)O

For “[Dat^1, Orn^12, Abu^15, Orn^21, Nle^27, Asp^28, Agm^29]hGHRH(1-29)NH2 ([Desaminotyrosyl]ADAIFTNSYR[Orn]VL[Abu]QLSAR[Orn]LLQDI[Nle]D[Agmatine]-NH2) [JI-34]”, the “inhibitory effect on proliferation (MTT)” value in [1] is recorded as “no significant effect”. In addition, the “decrease in the number of cells” value in [2] is “no significant effect”. In assay [3], the increase in apoptosis entry is “no effect”. For the same compound, in assay [4], the “decrease in level of TGFβ” value stood at 24% and the “decrease in level of bFGF” value was 37%. Further, the “expression of the neuroectodermal stem-cell marker nestin” value in assay [5] is “decreased”. Besides, the “increase in GFAP expression (integrated density values)” value in assay [5] (compared with the control) came out at 70%. For the same compound, in [6], the “GFAP labeling (immunofluorescence)” value is “high levels of GFAP were detected; also recorded: elevation in the intensity of GFAP-labeling” and the “nestin level (immunofluorescence)” value is “did not change notably; also recorded: did not show a significant change”.

With `COc1cccc2c1C(=O)c1c(O)c3c(c(O)c1C2=O)C[C@@](O)(C(=O)CO)C[C@@H]3O[C@H]1C[C@H](N)[C@H](O)[C@H](C)O1` [DOX, doxorubicin], the “inhibition of tumor growth” value in assay [7] amounted to 35%. Moreover, the “inhibitory effect on proliferation (MTT)” value in assay [1] is on record as “no significant effect”. In assay [2], the “decrease in the number of cells” value was 52%. Further, the “decrease in the volume of the cells (intracellular water content)” value in assay [8] turned out to be 20%. In assay [9], the “Relative expression of B-cell lymphoma 2 (Bcl-2)” value was −1.8*, the “Relative expression of Integrin α3 (CD49C)” value is reported as −1.65* and the “Relative expression of S100 calcium binding protein A4 (S100-A4)” value was −2.34*. In addition, the increase in apoptosis in assay [3] came to 182%. The “increase in calcein retention” value in [10] is 7%. Further, in [5], the “expression of GFAP” value is recorded as “decrease” and the “expression of the neuroectodermal stem-cell marker nestin” value is on record as “increased”.
